The target of this experiment is T1, BRD4 bromodomains (Homo sapiens, UniProt O60885).
T1 construct: fused on or other part: T7 phage capsid protein (phage-display fusion; the phage DNA is read out by qPCR)
The experiment is described as follows: BROMOscan bromodomain competition binding assay (DiscoveRx). The following applies: Kd from 11 compound concentrations ranging from 0 to 10 μM, read-out: BROMOscan Relative Activity. The essentials: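 Compounds in 0.1% DMSO/0.9% MEG competed with a solid-phase acetylated peptide for T7 phage-fused BRD4 bromodomains, with the retained bromodomain measured by qPCR.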
`Cc1noc(C)c1-c1ccc2nc(C(=O)N3CCc4cnn(C)c4C3)nc(N3CCOC[C@@H]3c3ccccc3)c2c1` [Example 317, (S)-(6-(3,5-dimethylisoxazol-4-yl)-4-(3-phenylmorpholino)quinazolin-2-yl)(1-methyl-1,4,5,7-tetrahydro-6H-pyrazolo[3,4-c]pyridin-6-yl)methanone]: the Kd was in the range of 500 to 5000 nM. In the case of `Cc1noc(C)c1-c1ccc2nc(N3CCc4cnn(C)c4C3)nc(N3CCOC[C@@H]3c3ccccc3)c2c1` [Example 318, (S)-4-(6-(3,5-dimethylisoxazol-4-yl)-2-(1-methyl-1,4,5,7-tetrahydro-6H-pyrazolo[3,4-c]pyridin-6-yl)quinazolin-4-yl)-3-phenylmorpholine], the Kd is under 500 nM. To `Cc1noc(C)c1-c1ccc2nc(-c3cnn(C4CCNCC4)c3)nc(N3CCOC[C@@H]3c3ccccc3)c2c1` [Example 319, (S)-4-(6-(3,5-dimethylisoxazol-4-yl)-2-(1-(piperidin-4-yl)-1H-pyrazol-4-yl)quinazolin-4-yl)-3-phenylmorpholine] belongs under 500 nM. The result for `Cc1noc(C)c1-c1ccc2nc(N3CCC4(CCN(C)C4=O)CC3)nc(N3CCOC[C@@H]3c3ccccc3)c2c1` [Example 320, (S)-8-(6-(3,5-dimethylisoxazol-4-yl)-4-(3-phenylmorpholino)quinazolin-2-yl)-2-methyl-2,8-diazaspiro[4.5]decan-1-one] reads under 500 nM. Turning to `Cc1noc(C)c1-c1ccc2nc(-c3ccc(CO)nc3)nc(N3CCOC[C@@H]3c3ccccc3)c2c1` [Example 321, (S)-(5-(6-(3,5-dimethylisoxazol-4-yl)-4-(3-phenylmorpholino)quinazolin-2-yl)pyridin-2-yl)methanol], the Kd is under 500 nM.

With `Cc1noc(C)c1-c1ccc2nc(-c3cnn(CC(C)(C)O)c3)nc(N3CCN(C(=O)NC4CC4)C[C@@H]3c3ccccc3)c2c1` [Example 322, (S)—N-cyclopropyl-4-(6-(3,5-dimethylisoxazol-4-yl)-2-(1-(2-hydroxy-2-methylpropyl)-1H-pyrazol-4-yl)quinazolin-4-yl)-3-phenylpiperazine-1-carboxamide], the Kd is under 500 nM.

Turning to `Cc1noc(C)c1-c1ccc2nc(-c3ccc(CO)s3)nc(N3CCOC[C@@H]3c3ccccc3)c2c1` [Example 323, (S)-(5-(6-(3,5-dimethylisoxazol-4-yl)-4-(3-phenylmorpholino)quinazolin-2-yl)thiophen-2-yl)methanol], the Kd was 500 to 5000 nM.

As to `CC(=O)N1CC(n2cc(-c3nc(N4CCOC[C@@H]4c4ccccc4)c4cc(-c5c(C)noc5C)ccc4n3)cn2)C1` [Example 324, (S)-1-(3-(4-(6-(3,5-dimethylisoxazol-4-yl)-4-(3-phenylmorpholino)quinazolin-2-yl)-1H-pyrazol-1-yl)azetidin-1-yl)ethan-1-one], the Kd is under 500 nM. The result for `Cc1noc(C)c1-c1ccc2nc(-c3csc(CO)c3)nc(N3CCOC[C@@H]3c3ccccc3)c2c1` [Example 325, (S)-(4-(6-(3,5-dimethylisoxazol-4-yl)-4-(3-phenylmorpholino)quinazolin-2-yl)thiophen-2-yl)methanol] reads 500 to 5000 nM; that for `Cc1noc(C)c1-c1ccc2nc(-c3cnn(C4CNC4)c3)nc(N3CCOC[C@@H]3c3ccccc3)c2c1` [Example 326, (S)-4-(2-(1-(azetidin-3-yl)-1H-pyrazol-4-yl)-6-(3,5-dimethylisoxazol-4-yl)quinazolin-4-yl)-3-phenylmorpholine], under 500 nM; that for `CC(=O)N1CCC(n2cc(-c3nc(N4CCOC[C@@H]4c4ccccc4)c4cc(-c5c(C)noc5C)ccc4n3)cn2)CC1` [Example 327, (S)-1-(4-(4-(6-(3,5-dimethylisoxazol-4-yl)-4-(3-phenylmorpholino)quinazolin-2-yl)-1H-pyrazol-1-yl)piperidin-1-yl)ethan-1-one], under 500 nM. With `Cc1noc(C)c1-c1ccc2nc(N3CCc4c(ncn4C)C3)nc(N3CCOC[C@@H]3c3ccccc3)c2c1` [Example 328, (S)-4-(6-(3,5-dimethylisoxazol-4-yl)-2-(1-methyl-1,4,6,7-tetrahydro-5H-imidazo[4,5-c]pyridin-5-yl)quinazolin-4-yl)-3-phenylmorpholine], the Kd is under 500 nM. To `Cc1noc(C)c1-c1ccc2nc(N3CCC4(CCNC4=O)CC3)nc(N3CCOC[C@@H]3c3ccccc3)c2c1` [Example 329, (S)-8-(6-(3,5-dimethylisoxazol-4-yl)-4-(3-phenylmorpholino)quinazolin-2-yl)-2,8-diazaspiro[4.5]decan-1-one] belongs under 500 nM; to `Cc1noc(C)c1-c1ccc2nc(N3CCC4(CCC(=O)N4C)CC3)nc(N3CCOC[C@@H]3c3ccccc3)c2c1` [Example 330, (S)-8-(6-(3,5-dimethylisoxazol-4-yl)-4-(3-phenylmorpholino)quinazolin-2-yl)-1-methyl-1,8-diazaspiro[4.5]decan-2-one], under 500 nM.

(Values after patent publication US11028079B2 (ConverGene LLC, priority 2015, dated 2021).)
